# According to patent US20160250238A1, “Method for the Prophylaxis or Treatment of Systemic Lupus Erythematosus and/or Lupus Nephritis” (MILLENNIUM PHARMACEUTICALS, INC., priority 2013, published 2016):
# Marks after values point to notes of the source that are not given here.
# Legend:
# anti-KLH IgG = experiment: ELISA for anti-KLH IgG titer in serum of KLH-immunized rats (rat KLH-TDAR model); type: in vivo, F344 rats; details: for Anti-KLH IgG titer: twice weekly for 4 weeks, serum, mean ± SE (n = 10)
# Protocol: (§1) F344 rats (male, 7 weeks old) were immunized with KLH plus adjuvant twice at day 0 and day 14. From 8 days after last immunization, rats were administered with vehicle or compound (I) (0.3 mpk, i.v. or 1.5 mpk, p.o.) twice weekly for 4 weeks, then the rats were sacrificed and serum, spleen and bone marrow were collected. All study protocols were approved by TAKEDA Animal Care and Use Committee.
# Serum was stored at −80° C. until use. Anti-KLH IgG titer in serum was measured by ELISA (KLH rat IgG ELISA kit, Shibayagi).
# (§2) Data represent mean values+s.e.m. (n=10). Student t test was used for statistical analysis (*p<0.05, **p<0.01 vs. control).
# [1] = tested on: anti-KLH antibody producing cells; experiment: ELISpot assay of anti-KLH IgG-secreting cells from spleen and bone marrow of KLH-immunized rats; type: in vivo, F344 rats; details: for The number of anti-KLH IgG-secreting cells, bone marrow / The number of anti-KLH IgG-secreting cells, Spleen: twice weekly for 4 weeks, mean ± SE (n = 10)
# Protocol: as §1
# Splenocytes and bone marrow cells were collected from spleen and bone marrow. The cells were cultured for 2 hours on 96 well plate pre-coated with KLH (Sigma, H7017-20 MG), then after washing with PBS, the plates were incubated with goat anti-rat IgG, HRP conjugate (Millipore, AP136P) for 1 hour. Anti-KLH antibody producing cells were visualized by adding TMB substrate and the number of anti-KLH antibody producing cells were counted by ELISpot reader system (AID).
# as §2
smiles,measurement,setting,value
"CC(C)C[C@H](NC(=O)CNC(=O)c1cc(Cl)ccc1Cl)B(O)O [Compound (I), [(1R)-1-({[(2,5-dichlorobenzoyl)amino]acetyl}amino)-3-methylbutyl]boronic acid]",Anti-KLH IgG titer,"anti-KLH IgG; 0.3 mpk, iv",509.5 ± 54.4*
same,Anti-KLH IgG titer,"anti-KLH IgG; 1.5 mpk, po",545.8 ± 67.0*
same,effect on anti-KLH IgG titer (in words),"anti-KLH IgG; four weeks treatment, 0.3 mpk, i.v. or 1.5 mpk, p.o.",significantly suppressed the anti-KLH IgG titer
same,"The number of anti-KLH IgG-secreting cells, bone marrow","[1]; 0.3 mpk, iv",103.9 ± 16.9** /3 × 10^5cells
same,"The number of anti-KLH IgG-secreting cells, Spleen","[1]; 0.3 mpk, iv",37.0 ± 6.8** /1 × 10^6cells
same,"The number of anti-KLH IgG-secreting cells, bone marrow","[1]; 1.5 mpk, po",156.4 ± 32.0 /3 × 10^5cells
same,"The number of anti-KLH IgG-secreting cells, Spleen","[1]; 1.5 mpk, po",50.1 ± 12.2* /1 × 10^6cells
same,effect on the number of anti-KLH IgG-producing cells in spleen and bone marrow (in words),"[1]; four weeks treatment, 0.3 mpk, i.v. or 1.5 mpk, p.o., ELISpot",suppressed the number of anti-KLH IgG-producing cells in spleen and bone marrow
